Measured values from patent publication US6083932A, “Pharmaceutical compositions derived from ginseng and methods of treatment using same” (CV Technologies Inc., priority 1998, dated 2000).
Several values for one entry are separate records, joined by “and”; a condition that tells them apart may be missing. Equal values may be shown once. Entries after “also recorded” stand apart in the source; their conditions may differ.

Experiments:
[1] = tested on: ACh in the cortical and hippocampal regions of the brain; conditions: U.S. Pat. No. 5,137,878; cited from earlier work
[2] = tested on: choline uptake into synaptosomes, hippocampus; experiment: choline uptake into synaptosomes from rat hippocampus; type: biochemical; conditions: 1 × 10^-6M, n = 10, 1 µM
Text: We also studied the effects of HT1001 on choline uptake in synaptosomes.
We have examined choline uptake in synaptosome preparations from whole brain and hippocampus in the presence of Rb1, HT1001 and HC3.

L type calcium channel = L type calcium channel currents in N1E115 neuroblastoma cells (whole-cell patch-clamp); type: cell-based, mouse; conditions: same concentration (100 μM); N1E-115 cells
Protocol: (§1) A study of the effects of HT1001 and some pure ginsenosides on calcium channel activity in cultured neuroblastoma cells was conducted.
(§2) Neuroblastoma Cell Culture. Mouse neuroblastoma cells (N1E115) were cultured in Dulbecco's modified Eagle's medium (GIBCO) containing 10% fetal bovine serum at 37° C. in a humidified atmosphere of 5% CO2 in air. The medium was changed every 3-4 days. After mechanical agitation, 3×10^4 cells were replanted in 35 mm tissue culture dishes containing 4 ml of bath solution. After cell attachment, the dish was mounted on the stage of an inverted phase-contrast microscope (Nikon) for Ca^2+ channel current recording. These cells expressed predominately T channel currents. In experiments where L channels were specifically sought, the cells were grown and maintained at confluence for 3-4 weeks under the same culture conditions with the addition of 2% (vol/vol) dimethyl sulfoxide. Three to five days before use, the cells were replanted with the same medium. These cells expressed predominately L channel currents. […]
(§3) Ca^2+ Channel Current Recording in Neuroblastoma Cells. […] Since the peak currents measured with 20 mM Ba^2+ as the charge carrier were usually small (about 200 pA) the series resistance compensation was not usually employed. […] For every single-cell recording, stable readings were first obtained for 5 min; the drug was then added to the bath solution. […]

[3] = tested on: choline uptake into synaptosomes, whole brain; conditions: Benishin 1992 / previously demonstrated; cited from earlier work
rats = conditions: rat, in vivo; cited from earlier work
T type calcium channel = T type calcium channel currents in N1E115 neuroblastoma cells (whole-cell patch-clamp); type: cell-based, mouse; conditions: same concentration (100 μM); N1E-115 cells
Protocol: as §1, §2, §3

monoamine oxidase-B = biological target: T1, monoamine oxidase-B (Rattus norvegicus, UniProt P19643); experiment: in vitro monoamine oxidase-B inhibiting activity (radiochemical, β-phenylethylamine substrate); type: biochemical; conditions: read-out: % MAO-B Inhibition; for inhibition at 1000 µg/mL: 1.0 mg/ml; for inhibition at 10000 µg/mL: 10 mg/ml
T1 construct: homogenates of rat brain; from tissue; host or cells: rat brain homogenate
T1 sequence (P19643 1-520): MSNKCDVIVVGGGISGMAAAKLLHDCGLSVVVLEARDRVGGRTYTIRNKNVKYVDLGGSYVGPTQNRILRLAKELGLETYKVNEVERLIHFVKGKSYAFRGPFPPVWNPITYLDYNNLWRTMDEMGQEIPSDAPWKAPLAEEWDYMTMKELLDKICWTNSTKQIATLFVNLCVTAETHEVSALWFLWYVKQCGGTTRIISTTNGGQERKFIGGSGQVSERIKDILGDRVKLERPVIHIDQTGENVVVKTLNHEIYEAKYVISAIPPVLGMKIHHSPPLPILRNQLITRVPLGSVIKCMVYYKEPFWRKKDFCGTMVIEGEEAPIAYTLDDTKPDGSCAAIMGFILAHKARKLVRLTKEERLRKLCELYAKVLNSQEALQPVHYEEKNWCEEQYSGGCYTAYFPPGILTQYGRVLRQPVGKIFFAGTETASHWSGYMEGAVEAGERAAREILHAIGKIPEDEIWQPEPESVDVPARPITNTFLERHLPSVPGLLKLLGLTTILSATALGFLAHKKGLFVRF
Protocol: Example 1 is a study of the effects of several extracts of HT1001, PQ4, PQ5, PQ6 and pure ginsenosides, on monoamine oxidase A (MAO A) and monoamine oxidase B (MAO B) activity in vitro.
HT-1001, related extracts and pure ginsenosides were evaluated for in vitro monoamine oxidase-A and monoamine oxidase-B inhibiting activity using the radiochemical procedure of Lyles and Callingham, Biochem. Pharmacol. 31: 1417-1424 (1982), employing either radiolabelled 5-hydroxytryptamine or β-phenylethylamine as substrates for monoamine oxidase-A (MAO-A) or monoamine oxidase-B (MAO-B) respectively. Various concentrations of the compounds of interest were incubated in appropriately diluted homogenates of rat brain in a 0.2 M potassium phosphate buffer. After a 15 minute preincubation period the reaction was initiated by the addition of substrate. Incubations proceded at 37° C. for 10 minutes. Incubation was terminated by the addition of acid and the radiolabelled products (5-hydroxyindoleacetic acid, 5-hydroxyindoleacetaldehyde or phenylacetic acid, phenylacetaldehyde) were extracted and quantified by liquid scintillation counting procedures. Incubations were done in triplicate and incubations including pheneizine a known MAO inhibitor were included as controls and for comparison. The percent inhibition of monoamine oxidase-A or monoamine oxidase-B activity compared to controls containing no experimental material was calculated.

Row | inhibition at 1000 µg/mL (monoamine oxidase-B) [%] | inhibition at 10000 µg/mL (monoamine oxidase-B) [%] | Structure (SMILES) | availability of ACh [1] | symptoms of Alzheimer-type senile dementia [1] | choline uptake, Rb1 [2] | effect on L type calcium channel currents (L type calcium channel) | choline uptake (literature) [3] | learning and memory (literature) (rats) | effect on T type calcium channel currents (T type calcium channel)
1 | -11.6 | -7.8 | CC(C)=CCC[C@](C)(O[C@@H]1O[C@H](CO[C@@H]2O[C@H](CO)[C@@H](O)[C@H](O)[C@H]2O)[C@@H](O)[C@H](O)[C@H]1O)[C@H]1CC[C@]2(C)[C@@H]1[C@H](O)C[C@@H]1[C@@]3(C)CC[C@H](O[C@@H]4O[C@H](CO)[C@@H](O)[C@H](O)[C@H]4O[C@@H]4O[C@H](CO)[C@@H](O)[C@H](O)[C@H]4O)C(C)(C)[C@@H]3CC[C@]12C [Rb1, ginsenoside Rb1] | enhance the availability of ACh | alleviate the symptoms of Alzheimer-type senile dementia | 126 % control and 111 % control and 125 % control | significant inhibitory effect; also recorded: inhibitory effects | increase choline uptake | enhance learning and memory | significant inhibitory effect; also recorded: inhibitory effects
2 | -7.2 | -5 | CC(C)=CCC[C@](C)(O[C@@H]1O[C@H](CO)[C@@H](O)[C@H](O)[C@H]1O)[C@H]1CC[C@]2(C)[C@@H]1[C@H](O)C[C@@H]1[C@@]3(C)CC[C@H](O)C(C)(C)[C@@H]3[C@@H](O[C@@H]3O[C@H](CO)[C@@H](O)[C@H](O)[C@H]3O)C[C@]12C [Rg1, ginsenoside Rg1] | enhance the availability of ACh | alleviate the symptoms of Alzheimer-type senile dementia | – | significant inhibitory effect; also recorded: inhibitory effects | – | – | significant inhibitory effect; also recorded: inhibitory effects
